The values below are quoted from earlier work in patent US20040229771A1, “Method of reducing decline of or preserving residual renal function” (priority 2003, published 2004).

The test system of the data set is cell culture. Conditions: cell culture experiments, reference (2).

In the case of `O=CC(=O)C=CC(O)CO` (stereo not shown) [3,4-DGE, 3,4-dideoxyglucosone-3-ene], the immunosuppressive effects entry is given as “immunosuppressive effects”.
